Results from ChEMBL document CHEMBL5120785, “Rational design, synthesis, antiproliferative activity against MCF-7, MDA-MB-231 cells, estrogen receptors binding affinity, and computational study of indenopyrimidine-2,5-dione analogs for the treatment of breast cancer” (Bioorg Med Chem Lett, 2022).

Experiments:
Estrogen receptor beta = Estrogen receptor beta (Homo sapiens, UniProt Q92731)
Description: Binding affinity to human recombinant ERbeta by competitive fluorometric binding assay

Estrogen receptor = molecular target: T1, Estrogen receptor (Homo sapiens, UniProt P03372); test: Binding affinity to human recombinant ERalpha by competitive fluorometric binding assay
T1 sequence (P03372 whole entry): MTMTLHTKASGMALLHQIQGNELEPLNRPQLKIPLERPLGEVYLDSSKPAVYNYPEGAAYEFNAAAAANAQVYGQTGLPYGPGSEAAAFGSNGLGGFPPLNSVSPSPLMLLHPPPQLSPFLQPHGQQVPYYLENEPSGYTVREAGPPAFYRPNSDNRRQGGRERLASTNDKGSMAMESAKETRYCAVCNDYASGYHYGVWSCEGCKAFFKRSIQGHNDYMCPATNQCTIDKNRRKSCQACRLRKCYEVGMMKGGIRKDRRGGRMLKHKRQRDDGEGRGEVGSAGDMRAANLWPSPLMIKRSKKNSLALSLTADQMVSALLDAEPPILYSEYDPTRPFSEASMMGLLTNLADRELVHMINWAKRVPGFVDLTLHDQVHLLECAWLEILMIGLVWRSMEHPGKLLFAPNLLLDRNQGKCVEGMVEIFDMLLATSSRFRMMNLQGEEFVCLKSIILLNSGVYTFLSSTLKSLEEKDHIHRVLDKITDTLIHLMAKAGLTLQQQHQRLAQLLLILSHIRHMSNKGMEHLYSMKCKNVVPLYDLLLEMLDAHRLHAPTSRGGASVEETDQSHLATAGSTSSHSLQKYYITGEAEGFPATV

MCF7 = test: cells; conditions: Homo sapiens, MCF7, 24 h
Description: Antiproliferative activity against human MCF7 cells assessed as cell viability after 24 hrs by MTT assay

MDA-MB-231 = test: cells; conditions: Homo sapiens, MDA-MB-231, 24 h
Description: Antiproliferative activity against human MDA-MB-231 cells assessed as cell viability after 24 hrs by MTT assay

Chorioallantoic membrane = test: Anti-angiogenesis activity in chicken embryo chorioallantonic membrane measured after 2 hrs by CAM assay; type: functional; conditions: Gallus gallus
HEK293 = test: Cytotoxicity against human HEK293 cells assessed as cell viability after 24 hrs by MTT assay; type: functional, cell-based; conditions: HEK293, 24 h
[1] = Selectivity index, ratio of IC50 for human recombinant ERbeta to human recombinant ERalpha

Sequence of Estrogen receptor beta (Q92731 whole entry): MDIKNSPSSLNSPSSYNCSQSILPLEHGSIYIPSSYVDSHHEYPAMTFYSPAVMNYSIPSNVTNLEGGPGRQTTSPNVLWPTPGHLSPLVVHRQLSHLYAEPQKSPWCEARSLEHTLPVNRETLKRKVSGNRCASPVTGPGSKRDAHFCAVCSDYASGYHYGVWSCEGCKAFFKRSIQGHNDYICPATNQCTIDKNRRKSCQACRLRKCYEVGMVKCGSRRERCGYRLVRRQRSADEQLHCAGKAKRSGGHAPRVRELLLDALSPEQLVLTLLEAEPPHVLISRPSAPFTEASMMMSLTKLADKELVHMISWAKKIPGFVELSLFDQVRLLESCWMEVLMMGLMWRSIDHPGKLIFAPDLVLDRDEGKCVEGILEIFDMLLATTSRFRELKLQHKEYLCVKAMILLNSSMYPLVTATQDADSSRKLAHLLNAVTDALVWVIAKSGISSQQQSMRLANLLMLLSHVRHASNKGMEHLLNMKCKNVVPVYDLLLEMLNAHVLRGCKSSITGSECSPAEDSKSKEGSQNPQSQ

Row | SMILES | IC50 (Estrogen receptor beta) [µM] | IC50 (Estrogen receptor) [µM] | IC50 (MCF7) [µM] | IC50 (MDA-MB-231) [µM] | IC50 (Chorioallantoic membrane) [µM] | IC50 (HEK293) [µM] | Ratio IC50 [1]
1 | CN1C(=O)NC(c2ccc(O)cc2)C2=C1c1ccccc1C2=O (stereo not given) | > 10 | 36.1 |  |  |  |  | 
2 | CN1C(=O)NC(c2ccc(C(F)(F)F)cc2)C2=C1c1ccccc1C2=O (stereo not given) | > 10 | 29.6 |  |  |  |  | 
3 | CN1C(=O)NC(c2ccc(OCCN3CCN(CC(F)(F)F)CC3)cc2)C2=C1c1ccccc1C2=O (stereo not given) | > 10 | 1.29 | 6.25 | > 50 |  |  | 
4 | CN1C(=O)N(CCN2CCNCC2)C(c2ccc(C(F)(F)F)cc2)C2=C1c1ccccc1C2=O (stereo not given) | > 10 | 0.021 | 0.89 | > 50 | 19.1 | 44.3 | 
5 | CN(CCOc1ccc(C2NC(=O)N(C)C3=C2C(=O)c2ccccc23)cc1)CCC(Oc1ccc(C(F)(F)F)cc1)c1ccccc1 (stereo not given) | > 10 | 0.81 | 11.2 | > 50 |  |  | 
6 | CN(C)CCOc1ccc(C2C3=C(c4ccccc4C3=O)N(C)C(=O)N2CC(F)(F)F)cc1 (stereo not given) | > 10 | 7.55 | 14.3 | 31.6 |  |  | 
7 | CN(C)CCOc1ccc(C2NC(=O)N(C)C3=C2C(=O)c2ccccc23)cc1 (stereo not given) | > 10 | 3.17 | 11.3 | 21.1 |  |  | 
8 | CN1C(=O)N(N(C)CCC(Oc2ccc(C(F)(F)F)cc2)c2ccccc2)C(c2ccc(C(F)(F)F)cc2)C2=C1c1ccccc1C2=O (stereo not given) | > 10 | 1.33 | 6.98 | > 50 |  |  | 
9 | CN1CCN(CCOc2ccc(C3NC(=O)N(C)C4=C3C(=O)c3ccccc34)cc2)CC1 (stereo not given) | > 10 | 0.49 | 14.4 | > 50 |  |  | 
10 | CN(C)CCN1C(=O)N(C)C2=C(C(=O)c3ccccc32)C1c1ccc(C(F)(F)F)cc1 (stereo not given) | > 10 | 2.09 | 13.2 | > 50 |  |  | 
11 | CN(Cc1cnc2nc(N)nc(N)c2n1)c1ccc(C(=O)N[C@@H](CCC(=O)O)C(=O)O)cc1 [METHOTREXATE] |  |  |  |  | 3.65 |  | 
12 | CN1CCN(CCOc2ccc(C3C4=C(c5ccccc5C4=O)N(C)C(=O)N3CC(F)(F)F)cc2)CC1 (stereo not given) | > 10 | 3.01 | 16.1 | 28.4 |  |  | 
13 | CN1C(=O)NC(c2ccc(OCCN(CCO)CCO)cc2)C2=C1c1ccccc1C2=O (stereo not given) | 0.53 | 0.0071 | 0.07 | > 50 | 3.52 | > 50 | 
14 | CN1C(=O)N(CC(F)(F)F)C(c2ccc(OCCN3CCN(CC(F)(F)F)CC3)cc2)C2=C1c1ccccc1C2=O (stereo not given) | > 10 | 0.93 | 5.17 | > 50 | 6.94 |  | 
15 | CN1CCN(CCN2C(=O)N(C)C3=C(C(=O)c4ccccc43)C2c2ccc(C(F)(F)F)cc2)CC1 (stereo not given) | > 10 | 0.072 | 1.48 | > 50 |  | 38.5 | 
16 | CC/C(=C(\c1ccccc1)c1ccc(OCCN(C)C)cc1)c1ccccc1 [TAMOXIFEN] |  |  | 8.53 | 14.9 |  | 26.3 | 0.054
17 | CN1C(=O)N(CCN(CCO)CCO)C(c2ccc(C(F)(F)F)cc2)C2=C1c1ccccc1C2=O (stereo not given) | 0.31 | 0.004 | 0.081 | > 50 | 0.86 | > 50 | 
18 | CN1C(=O)NC(c2ccc(OCCN3CCNCC3)cc2)C2=C1c1ccccc1C2=O (stereo not given) | > 10 | 0.44 | 1.02 | > 50 | 6.7 | 37.5 | 
